Reference: patent US20160158381A1, “NOVEL NANOLIPOSOMES AND THEIR USE FOR THE TREATMENT OF AMYLOID PROTEIN DISEASES” (DEPARTMENT OF VETERANS AFFAIRS, TECHNOLOGY TRANSFER PROGRAM, priority 2013, published 2016)
“Also recorded” adds a separate entry of the source.

Columns and labels:
Type in all cases: cell-based
[1] = system: human ex-vivo adipose arterioles exposed to LC; test: Arteriole vasoreactivity after LC exposure with or without NL; conditions: LC+NL co-treated with L-NAME 5 mmol
Method: 9 male subjects (64±3 years old) without AL/diabetes/vascular disease undergoing routine abdominal surgery donated subcutaneous adipose tissue obtained by surgeons. Arterioles (˜[…]) were isolated, cannulated and pressurized (60 mmHg). Baseline/control vasoreactivity was performed following preconstriction with endothelin-1 (60% baseline diameter) and successive administration of acetylcholine (10-9-10-4M) to measure endothelium-dependent dilation and papaverine (10^-4M) to measure smooth-muscle dependent dilation (videomicrometer). After washing, vessels were exposed to LC (20 μg/mL, physiologic concentration of circulating LC in patients) with or without NL (1:10 LC:NL mass ratio) for 1 hour and a second vasoreactivity response performed. In additional arterioles, LC+NL were co-treated with L-NG-nitroarginine methyl ester (L-NAME, 5 mmol, Sigma-Aldrich).
Data is expressed as means±standard error of means. Baseline control and post-treatment dilator response were compared using paired Student's t-test. Overall acetylcholine dilator response was analyzed by deriving the log effective concentration 50% (log EC50) using nonlinear regression and variable slope and least squares fit. For group analyses, one-way or two way analysis of variance with Bonferroni post-test were utilized (GraphPad Prism 5.0, San Diego Calif.).

[2] = system: human abdominal subcutaneous adipose arterioles exposed to Aβ42; test: Arteriole vasoreactivity after Aβ42 exposure with or without nanoliposomes; conditions: for dilator responses to acetylcholine and papaverine (endothelial function): Aβ42 2 μM with or without nanoliposomes (1:10 Aβ:NLPA mass ratio), one hour
Method: Human abdominal subcutaneous arterioles were isolated from subjects without vascular disease, pressurized and constricted with endothelin-1. Baseline (control) dilation response was measured following acetylcholine (10_9-10-4M) and papaverine (10^-4M) exposure; after washing, arterioles were exposed to Aβ42 (2 μM)±nanoliposomes (NLPA, 70% cholesterol, 25% phosphatidylcholine, 5% phosphatidic acid, 1:10 Aβ:NLPA mass ratio) and dilator response was measured.

[3] = system: Human umbilical vein endothelial cells (HUVECs); test: Endothelial cell nitric oxide production (DAF-2 diacetate fluorescence); conditions: 1 hour exposure, acetylcholine 10^-4M at 45 minutes
Method: Human umbilical vein endothelial cells (HUVECs) were exposed to Aβ42±NLPA or control for 1-hour, acetylcholine (10^-4M) was administered at 45 minutes and nitric oxide (NO production) was measured using DAF-2 diacetate fluorescence (1 hour compared to baseline fluorescence).

[4] = system: human ex-vivo adipose arterioles exposed to soluble amyloid proteins (light chain); test: Arteriole endothelial function after LC exposure with clusterin-incorporated nanoliposomes; conditions: separate experiments; nanoliposomes of cholesterol and phosphatidylcholine; co-treatment with light chain
From the text: Nanoliposomes were composed of cholesterol, phosphatidylcholine and stearyl triphenylphosphonium (STTP) and clusterin was incorporated by noncovalent means.

Compound: COC(=O)[C@@H](N)CCCNC(=N)N[N+](=O)[O-] [L-NAME, L-NG-nitroarginine methyl ester]
- effect of L-NAME on NL protective effect (dilator response) [1]: abolished NL protective effect; also recorded: Nanoliposome protective effect was reversed

Compound: Aβ42: Aβ42 peptide, one of the amyloid proteins involved in AD
- dilation to acetylcholine 10^−4M ([2]; Aβ42 2 μM with or without NLPA, 1:10 Aβ:NLPA mass ratio): 61.5±5.7%
- dilator responses to acetylcholine and papaverine (endothelial function) [2]: caused endothelial dysfunction
- dilator responses to acetylcholine and papaverine (endothelial function) ([2]; listed as Aβ): reduced
- NO production [3]: reduced endothelial cell NO gas production
- NO production ([3]; listed as Aβ): reduced

Compound: free clusterin: free clusterin without nanoliposome; clusterin is apolipoprotein J, a chaperone protein
- dilator response to acetylcholine versus baseline [4]: +3.1%
